In data set [1] the test system is body malodour (axillae of human subjects). The data set can be described thus: Odour Reduction Value Test (soap bars applied to the axillae of a human panel). It counts as in vivo. Particulars: for Odour Reduction Value: 0 to 5 scale, 5 hours after washing. As for the experimental part: As has been stated, the ability of toilet soap containing both a deodorant perfume and a deodorant other than a deodorant perfume to reduce body malodour was assessed by an odour reduction value test, somewhat similar to that described by Whitehouse and Carter in Proc. Scientific Section of the Toilet Goods Association, 48, 31 (1967) for the measurement of body odour inhibition by germicides in toilet soap.
The test described in that publication was modified in three ways: firstly a 0 to 5 instead of a 0 to 10 grading scale was employed, secondly grading of odour intensity was performed 5 hours after treatment instead of 24 hours, and thirdly, the concentration of deodorant perfume incorporated in the test detergent product was 1.5% by weight of the product.
In this test, the odour reduction value of a standard soap bar containing a deodorant perfume at a standard concentration is measured by assessing its effectiveness in reducing body malodour when the standard soap bar is used to wash the axillae (armpits) of a panel of human subjects.
Standard soap bars are prepared as follows, all amounts given being by weight.
A soap base there is used a neutral wet sodium soap containing 63% of total fatty matter of which 82% is tallow fatty acid and 18% is coconut oil fatty acid. To a homogeneous mixture of 9000 parts of this soap base and 340 parts of free coconut oil fatty acid at 80° C. are added with mixing, 9.4 parts of a 20% aqueous solution of tetrasodium ethylenediamine tetraacetate, 2.2 parts of a 60% aqueous solution of 1-hydroxyethane-1,1-diphosphonic acid and 7.2 parts of butylated hydroxy toluene (BHT) antioxidant dissolved in a little methylated spirits and the temperature of the mass is raised to 140° C. under superatmospheric pressure. The mass is then sprayed at about 30 mm of mercury, to produce a dried soap composition which is collected and extruded at 30° C. as noodles of about 12% moisture content.
9,770 parts of the soap noodles thus obtained are mixed at ambient temperature with 150 parts of the deodorant perfume to be tested, together with 30 parts of a titanium dioxide opacifier and 50 parts of a colourant suspension. The resulting mixture is milled and stamped into tablets. The deodorant perfume to be tested is therefore present at the standard level of 1.5%.
In other respects, the control bar should only contain those additives conventionally present in personal washing products and for the purpose in the amount conventionally used in the art.
A team of 2 to 4 Caucasian female assessors of age within the range of from 20 to 40 years is selected for olfactory evaluation on the basis that each is able to rank correctly the odour levels of the series of aqueous isovaleric acid solutions listed in Table 2 below, and each is able to detect the reduction in body odour following application to the axillae of human subjects of soap containing 2% germicides, according to the procedure described by Whitehouse and Carter.
A panel of 30 to 50 human subjects for use in the test is assembled from Caucasian male subjects of age within the range of from 20 to 55 years.
For two weeks before the start of a test, the panel subjects are assigned a non-deodorant soap bar for exclusive use of bathing and are denied the use of any type of deodorant or antiperspirant. At the end of this period, the subjects are randomly divided into two groups. The control soap bars are then applied to the left axillae of the first group and the right axillae of the second, and the test soap bars are applied to the right axillae of the first group and the left axillae of the second.
The soap bars are applied by a technician using a standard technique in which a wet flannel is soaped with the soap bar for 15 seconds, the axilla is washed with the soaped flannel for 30 seconds, then wiped with a water rinsed flannel and dried with a clean towel.

Data set [2] concerns the target T1, lipoxidase (E.C. 13.1.13) (Glycine max, UniProt P08170).
T1 sequence (P08170 1-839): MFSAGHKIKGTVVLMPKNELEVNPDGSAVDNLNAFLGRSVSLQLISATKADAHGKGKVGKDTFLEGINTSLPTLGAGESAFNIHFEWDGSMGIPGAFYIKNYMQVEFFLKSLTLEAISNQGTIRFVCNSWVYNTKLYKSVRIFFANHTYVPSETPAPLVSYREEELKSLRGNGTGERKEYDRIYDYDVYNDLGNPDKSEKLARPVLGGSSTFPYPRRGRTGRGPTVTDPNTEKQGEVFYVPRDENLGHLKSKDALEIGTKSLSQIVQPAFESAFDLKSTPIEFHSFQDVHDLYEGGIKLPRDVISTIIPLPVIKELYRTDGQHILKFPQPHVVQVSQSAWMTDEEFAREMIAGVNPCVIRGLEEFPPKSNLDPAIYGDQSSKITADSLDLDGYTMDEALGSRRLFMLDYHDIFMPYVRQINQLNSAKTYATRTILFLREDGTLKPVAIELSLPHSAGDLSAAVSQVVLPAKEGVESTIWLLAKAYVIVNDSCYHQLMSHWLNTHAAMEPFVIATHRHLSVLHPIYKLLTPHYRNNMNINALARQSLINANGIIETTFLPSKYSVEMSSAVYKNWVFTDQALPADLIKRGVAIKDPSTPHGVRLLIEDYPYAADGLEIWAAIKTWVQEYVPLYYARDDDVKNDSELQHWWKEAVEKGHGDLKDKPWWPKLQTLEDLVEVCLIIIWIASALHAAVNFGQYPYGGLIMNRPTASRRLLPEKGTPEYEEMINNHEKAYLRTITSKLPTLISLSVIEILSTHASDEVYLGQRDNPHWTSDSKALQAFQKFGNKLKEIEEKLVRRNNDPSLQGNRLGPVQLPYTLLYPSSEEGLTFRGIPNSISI
Kind of data set: The Lipoxidase Test (inhibition of linoleic acid oxidation). Type of data set: biochemical. Particulars: test substrate made with 0.5% by weight solution of the material in ethanol, borate buffer pH 9.0, OD at 234 nm.

Data set [3] can be described thus: The Morpholine Test (depression of partial vapour pressure of morpholine). The conditions noted are these: morpholine 0.25 g + perfume material 1 g, 37° C., headspace GC.

Bounds are passed on as bounds.

For `O=C(Nc1ccc(Cl)cc1)Nc1ccc(Cl)c(Cl)c1` [3,3,4'-trichloro-carbanilide, 3,4,4'-trichlorocarbanilide], the “Odour Reduction Value” came out at 0.10 in data set [1] (0.16 wt % germicide in soap bar vs control soap bar without germicide); 0.14 in data set [1] (0.25 wt % germicide in soap bar vs control soap bar without germicide); 0.22 in data set [1] (0.5 wt % germicide in soap bar vs control soap bar without germicide); 0.27 in data set [1] (0.75 wt % germicide in soap bar vs control soap bar without germicide); 0.30 in data set [1] (1.0 wt % germicide in soap bar vs control soap bar without germicide); 0.37 in data set [1] (2.0 wt % germicide in soap bar vs control soap bar without germicide). Also, the “maximum reduction in odour intensity obtainable (odour reduction value)” value in data set [1] (germicide alone in soap bar, irrespective of the amount of germicide) was ≤ 0.4.

A word on the inhibition: it is how much of the control response was suppressed. In the case of `O=C(Cc1ccccc1)OCCc1ccccc1` [Phenylethyl phenylacetate], in data set [2] (read-out: LIC (lipoxidase-inhibiting capacity, % inhibition)), the inhibition at 0.5 % strength came out at 0%. The “RVR (Raoult variance ratio)” value in data set [3] was determined as 1.22.

For the compound Dimyrcetol, in data set [2], the “LIC (lipoxidase-inhibiting capacity, % inhibition)” value is on record as 14%.

With Tetrahydromuguol, in data set [2], the “LIC (lipoxidase-inhibiting capacity, % inhibition)” value was 24%.

For the compound i-Nonyl acetate, the “LIC (lipoxidase-inhibiting capacity, % inhibition)” value in data set [2] is given as 50%.

As to i-Nonyl formate, the “LIC (lipoxidase-inhibiting capacity, % inhibition)” value in data set [2] is reported as 19%.
